According to ChEMBL document CHEMBL4715809, “Design, synthesis, and biological activity of 4-(imidazo[1,2-b]pyridazin-3-yl)-1H-pyrazol-1-yl-phenylbenzamide derivatives as BCR-ABL kinase inhibitors” (Bioorg Med Chem Lett, 2016):

What was measured:
[1] = tested on: U-937; assay: Antiproliferative activity against human U937 cells assessed as reduction in cell viability after 24 hrs by CCK8 assay; type: functional, cell-based; settings: U-937, 24 h
[2] = Cytotoxicity against human 293T cells assessed as reduction in cell viability after 24 hrs by CCK8 assay; type: cell-based; settings: 293T (HEK-293T) cells
[3] = target: Bcr/Abl fusion protein (Homo sapiens, UniProt P00519); assay: (§1) Inhibition of BCR (unknown origin)/recombinant human N-terminal His-tagged ABL1 (27 to end residues) expressed in baculovirus infected Sf9 cells using ABLtide as substrate preincubated for 30 mins followed by substrate addition and measured after 1 hr in presence of ATP by kinase-Glo luminescence assay
[4] = tested on: K562; assay: Antiproliferative activity against human K562 cells assessed as reduction in cell viability after 24 hrs by CCK8 assay; type: functional, cell-based; settings: K562, 24 h
[5] = target: Bcr/Abl fusion protein (Homo sapiens) (UniProt P00519+P11274); assay: as §1, with “Potency index, ratio of staurosporine IC50 to test compound IC50 for inhibition” for “Inhibition”; settings: time 90.0 min
Bcr/Abl fusion protein (Homo sapiens), sequence (P00519 whole entry, looked up, the tested form may be a part): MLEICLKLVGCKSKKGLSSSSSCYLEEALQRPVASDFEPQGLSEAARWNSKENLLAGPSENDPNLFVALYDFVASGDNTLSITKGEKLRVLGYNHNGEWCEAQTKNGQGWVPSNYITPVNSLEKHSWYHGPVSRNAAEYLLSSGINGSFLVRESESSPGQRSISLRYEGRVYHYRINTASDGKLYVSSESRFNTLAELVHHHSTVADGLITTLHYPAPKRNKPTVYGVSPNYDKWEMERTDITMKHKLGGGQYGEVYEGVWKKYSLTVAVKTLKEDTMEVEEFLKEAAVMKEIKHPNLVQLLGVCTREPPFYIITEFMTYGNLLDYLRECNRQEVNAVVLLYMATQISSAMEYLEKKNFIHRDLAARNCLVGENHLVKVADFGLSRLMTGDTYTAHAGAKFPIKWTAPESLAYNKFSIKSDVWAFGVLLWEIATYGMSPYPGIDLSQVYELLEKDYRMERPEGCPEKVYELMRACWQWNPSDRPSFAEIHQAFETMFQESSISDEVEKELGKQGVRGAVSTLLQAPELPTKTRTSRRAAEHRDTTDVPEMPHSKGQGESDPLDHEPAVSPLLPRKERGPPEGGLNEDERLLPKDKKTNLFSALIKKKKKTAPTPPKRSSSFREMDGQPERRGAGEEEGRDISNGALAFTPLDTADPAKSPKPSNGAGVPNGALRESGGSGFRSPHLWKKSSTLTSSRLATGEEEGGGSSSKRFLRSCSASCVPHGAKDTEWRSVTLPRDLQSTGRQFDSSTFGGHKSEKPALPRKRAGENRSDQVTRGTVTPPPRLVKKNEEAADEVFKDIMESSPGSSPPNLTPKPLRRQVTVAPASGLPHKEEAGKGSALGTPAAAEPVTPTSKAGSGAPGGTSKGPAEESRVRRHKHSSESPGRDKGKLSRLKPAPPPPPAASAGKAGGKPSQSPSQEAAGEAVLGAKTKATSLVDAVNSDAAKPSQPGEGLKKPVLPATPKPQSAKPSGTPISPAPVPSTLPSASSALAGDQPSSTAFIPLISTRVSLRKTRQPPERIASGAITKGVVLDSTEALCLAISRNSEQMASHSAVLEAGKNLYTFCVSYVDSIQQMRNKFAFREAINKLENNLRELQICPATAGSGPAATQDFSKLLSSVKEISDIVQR
Bcr/Abl fusion protein (Homo sapiens), sequence (P11274 whole entry, looked up, the tested form may be a part): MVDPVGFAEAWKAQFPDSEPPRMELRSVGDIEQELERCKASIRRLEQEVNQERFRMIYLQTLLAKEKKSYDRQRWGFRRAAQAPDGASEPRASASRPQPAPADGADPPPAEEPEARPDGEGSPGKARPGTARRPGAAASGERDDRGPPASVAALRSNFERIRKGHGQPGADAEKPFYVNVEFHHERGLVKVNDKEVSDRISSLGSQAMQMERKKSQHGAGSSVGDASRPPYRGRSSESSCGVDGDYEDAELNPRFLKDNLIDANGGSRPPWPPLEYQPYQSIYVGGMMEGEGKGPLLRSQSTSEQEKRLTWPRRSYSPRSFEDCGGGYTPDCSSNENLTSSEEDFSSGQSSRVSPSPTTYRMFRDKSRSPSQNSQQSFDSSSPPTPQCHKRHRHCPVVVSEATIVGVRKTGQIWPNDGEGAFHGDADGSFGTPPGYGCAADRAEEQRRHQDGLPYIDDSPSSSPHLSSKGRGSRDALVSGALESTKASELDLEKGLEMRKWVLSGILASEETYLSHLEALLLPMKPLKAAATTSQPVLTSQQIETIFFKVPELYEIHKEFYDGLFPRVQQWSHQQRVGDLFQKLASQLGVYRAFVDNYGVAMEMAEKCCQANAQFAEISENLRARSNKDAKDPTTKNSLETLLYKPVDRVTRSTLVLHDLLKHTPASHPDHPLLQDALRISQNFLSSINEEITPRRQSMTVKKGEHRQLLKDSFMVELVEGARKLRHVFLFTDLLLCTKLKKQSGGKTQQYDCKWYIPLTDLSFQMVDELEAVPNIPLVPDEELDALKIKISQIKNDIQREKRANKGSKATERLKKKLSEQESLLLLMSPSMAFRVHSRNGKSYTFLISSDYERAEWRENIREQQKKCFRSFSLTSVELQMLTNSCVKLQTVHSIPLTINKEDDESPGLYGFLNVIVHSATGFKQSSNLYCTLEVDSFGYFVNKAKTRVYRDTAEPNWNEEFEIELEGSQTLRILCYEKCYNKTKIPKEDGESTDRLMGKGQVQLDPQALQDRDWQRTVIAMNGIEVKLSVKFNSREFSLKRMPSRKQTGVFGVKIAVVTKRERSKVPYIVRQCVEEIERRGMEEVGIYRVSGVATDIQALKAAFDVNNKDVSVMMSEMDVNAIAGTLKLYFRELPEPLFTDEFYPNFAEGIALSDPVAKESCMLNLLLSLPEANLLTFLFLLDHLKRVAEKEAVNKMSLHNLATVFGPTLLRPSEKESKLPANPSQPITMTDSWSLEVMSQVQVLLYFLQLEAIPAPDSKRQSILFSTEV

Bcr/Abl fusion protein, sequence (P00519 whole entry, the tested form may be a part): as the sequence (P00519 whole entry, looked up, the tested form may be a part) above
Bcr/Abl fusion protein, sequence (P11274 whole entry, further chain, the tested form may be a part): as the sequence (P11274 whole entry, looked up, the tested form may be a part) above

Structure (SMILES) | IC50 [1] [µM] | IC50 [3] [µM] | IC50 [4] [µM] | Ratio IC50 [5] | CC50 at 24 h [2] [µM]
Cc1ccc(NC(=O)c2cccc(Cl)c2)cc1-n1cc(-c2cnc3cccnn23)cn1 | > 20 | 0.0222 | 5.08 | – | > 80
COc1ccc(C(=O)Nc2ccc(C)c(-n3cc(-c4cnc5ccnn5c4)cn3)c2)cc1 | 16.3 | 0.767 | 19.7 | – | > 80
Cc1ccc(NC(=O)c2ccc(C(F)(F)F)cc2)cc1-n1cc(-c2cnc3cccnn23)cn1 | > 20 | 0.0741 | 10.5 | – | > 80
CCc1ccc(C(=O)Nc2ccc(C)c(-n3cc(-c4cnc5cccnn45)cn3)c2)cc1 | > 20 | 0.0194 | 7.54 | – | > 80
Cc1ccc(NC(=O)c2ccc(CN3CCOCC3)cc2)cc1-n1cc(-c2cnc3ccnn3c2)cn1 | – | 2.44 | – | – | –
Cc1ccc(NC(=O)c2ccc(F)cc2)cc1-n1cc(-c2cnc3cccnn23)cn1 | > 20 | 0.0809 | 12.4 | – | > 80

Second part, led by results:

IC50 [1] [µM] | IC50 [3] [µM] | IC50 [4] [µM] | Ratio IC50 [5] | Structure (SMILES) | CC50 at 24 h [2] [µM]
10.8 | 0.0261 | < 0.002 | – | Cc1ccc(NC(=O)c2ccc(CN3CCN(C)CC3)cc2)cc1-n1cc(-c2cnc3cccnn23)cn1 | 23.8
13.1 | 0.804 | 6.93 | – | Cc1ccc(NC(=O)c2ccc(C(F)(F)F)cc2)cc1-n1cc(-c2cnc3ccnn3c2)cn1 | 43.2
12.4 | 0.109 | 8.25 | – | Cc1ccc(NC(=O)c2ccc(CN3CCOCC3)cc2)cc1-n1cc(-c2cnc3cccnn23)cn1 | 9.04
12.4 | – | 7.38 | – | Cc1ccc(NC(=O)c2ccc(CN3CCN(C)CC3)cc2)cc1Nc1nccc(-c2cccnc2)n1 [IMATINIB] | 27.5
6.83 | 0.621 | 5.88 | – | Cc1ccc(NC(=O)c2ccc(CN3CCCN(C)CC3)cc2)cc1-n1cc(-c2cnc3ccnn3c2)cn1 | 20.5
13.7 | 0.0085 | < 0.002 | 14.3 | Cc1ccc(NC(=O)c2cccc(C(F)(F)F)c2)cc1-n1cc(-c2cnc3cccnn23)cn1 | 40.3
